Reference: patent US5089520A, “Method of inhibiting virus” (priority 1990, dated 1992)
Where two headings read alike, the source gives them in different places.

What was measured:
HIV [1] = conditions: literature, cited from earlier work; for inhibition of HIV / cytopathic effect (in words): in vitro
α-glucosidase I = conditions: literature; cited from earlier work
[2] = tested on: human leukemic T-cell line; experiment: in vitro; format: cell-based; design: key to T-cells Control (score): 0: complete CPE; ±: most cells dead; 1+: about 1/4 of cells alive; 2+: about 1/2 of cells alive; 3+: about 3/4 of cells alive; 4+: all cells appear alive; conditions: control cells, 3 weeks
Description: (§1) After a suitable period of incubation, the cultures are scored for the presence of so-called syncytial cells (giant cells). Typical examples of such a test for the evaluation of inhibitors of HIV have been disclosed by Fung et al., Bio/Technology 5, 940-946 (1987); Tyms et al., Lancet, Oct. 31, 1987, pp. 1025-1026; Gruters et al., Nature 330, 74-77 (1987); and Walker et al., Proc Natl. Acad. Sci. USA 84, 8120-8124 (1987).
(§2) In the present case, a human leukemic T-cell line was used which is described by Karpas, Leuk. Res. 1, 35-49 (1977). These cells were seeded into microtiter wells at a concentration of 5×10^3 cells per 0.2 ml of culture medium in each well. RPMI-1640 supplemented with 10% fetal calf serum was used as the culture medium. Each of the test compounds was added to either 4 or 6 wells of the microtiter plate. Two or three of the wells were infected with about 10^3 HIV-1 particles per well and two or three other wells were similarly infected with HV-2 particles. During the following 3 weeks, with a twice weekly change of medium containing the corresponding test compounds, the infected cells were monitored for the appearance of syncytial formations (giant cells) and eventual cytopathic effect (CPE). The non-infected cells were monitored for the possible cytotoxic effect of the test compounds. Likewise, the rate of growth was estimated in relation to growth of the control cells. The cultures were scored on a scale from 0 to 4+ by microscopic examination on the following basis:
(§3) 1+=about 1/4 of cells alive
(§4) 2+=about 1/2 of cells alive
(§5) 3+=about 3/4 of cells alive
(§6) 4+=all cells appear alive

[3] = Cytotoxic activity in non-infected T-lymphocytes (Example 14, Table II); format: cell-based; conditions: human, read-out: Cytotoxic Activity (% cell death)
Description: (§7) Further testing of compounds 1 to 12 for inhibition of HIV replication was carried out to confirm the results of Example 13. To discriminate between specific anti-HIV activity and cytotoxicity, the effects of these compounds on HIV infected and non-infected T-lymphocytes were assessed in parallel. Using the T-cell line and cell free suspensions of HIV prepared from infected cultures, as in Example 13, the concentration of infectious particles (TCID, tissue culture infectious dose) was estimated using an end-point titration where the number of infectious HIV particles in each preparation was determined by the highest dilution which contained infectious HIV, as detected by syncytial formation, cytotoxicity and HIV antigen synthesis after 10 days of culture with 10^4 T-45 cells. Stock solutions of all compounds were prepared by dissolving each compound at a concentration of 1 mg/ml in growth medium. These solutions were filtered and sterilised (0.22 μm). Initially, each compound was tested at concentrations of 0.1 mg/ml and 0.5 mg/ml.
(§8) The following Table II sets forth the cytotoxic activity (% cell death) and the anti-HIV activity (% cytopathic effect, CPE, reduction), for these compounds.

HIV [4] = experiment: Anti-HIV activity, CPE reduction in HIV infected T-lymphocytes (Example 14, Table II); format: cell-based; conditions: Human immunodeficiency virus 1, T-lymphocyte; for activity at 100 µg/mL: dosage 0.1 mg/ml; for activity at 130 µg/mL: dosage 0.13 mg/ml
Description: as §7, §8

mannosidase I = conditions: literature; cited from earlier work
HIV [5] = experiment: In vitro HIV replication / cytopathic effect assay, HIV-infected T-cells scored 0 to 4+ (Example 13, Table I); format: cell-based; design: key to T-cells HIV-infected (score): 0: complete CPE; ±: most cells dead; 1+: about 1/4 of cells alive; 2+: about 1/2 of cells alive; 3+: about 3/4 of cells alive; 4+: all cells appear alive; conditions: for HIV inhibition score (inactive, scored as zero): above test protocol (Example 13), concentration not given
Description: as §1, §2, §3, §4, §5, §6

in vitro = format: cell-based, human; design: key to T-cells Control (score): 0: complete CPE; ±: most cells dead; 1+: about 1/4 of cells alive; 2+: about 1/2 of cells alive; 3+: about 3/4 of cells alive; 4+: all cells appear alive; conditions: human, leukemic t-cell line; same test protocol as Table I; read-out: toxic at (concentration)
Description: as §1, §2, §3, §4, §5, §6

glycosidase = conditions: literature; cited from earlier work
α-glycosidase = conditions: literature; cited from earlier work
HIV virons = conditions: literature; cited from earlier work
[6] = compound concentration 0.1 mg/ml
[7] = compound concentration 0.3 mg/ml
[8] = compound concentration 0.13 mg/ml

O[C@@H]1[C@@H](O)[C@@H](O)CN2CC[C@@H](O)[C@@H]12 [L-6-epicastanospermine]
inhibition of HIV / cytopathic effect (in words) (HIV [1]): neither the epimer L-1,6-diepicastanospermine nor the stereoisomer of castanospermine, L-6-epicastanospermine, were found to be inhibitory

CN1C[C@H](O)[C@@H](O)[C@H](O)[C@H]1CO [N-methyl derivative of deoxynojirimycin]
glucosidase I inhibitory activity (in words) (α-glucosidase I): gluosidase I inhibitory activity | inhibition of HIV / cytopathic effect (in words) (HIV [1]): having activity against HIV

CN1[C@H](CO)[C@@H](O)[C@H](O)[C@H]1CO [Compound 1, N-Methyl derivative of dihydroxymethyldihydroxypyrrolidine]
T-cells Control (score) [2, 6]: 4+ | cytotoxicity ([3]; dosage 0.1 mg/ml): 0% | activity at 100 µg/mL (HIV [4]): 25%

O[C@@H]1[C@@H](O)[C@@H](O)CN2CC[C@H](O)[C@@H]12 [L-1,6-diepicastanospermine]
inhibition of HIV / cytopathic effect (in words) (HIV [1]): neither the epimer L-1,6-diepicastanospermine nor the stereoisomer of castanospermine, L-6-epicastanospermine, were found to be inhibitory

OC[C@H]1NC[C@@H](O)[C@@H](O)[C@@H]1O [deoxymannojirimycin (DMJ), 1,5-dideoxy-1,5-imino-D-mannitol]
mannosidase I inhibition (in words) (mannosidase I): mannosidase I inhibitor | effect on HIV / virion infectivity (in words) (HIV [1]): absence of effect

OC[C@@H]1NC[C@H](O)[C@H]1O [Compound 2, 1,4-Dideoxy-1,4-imino-L-arabinitol]
T-cells Control (score) [2, 7]: 4+ | cytotoxicity ([3]; dosage 0.1 mg/ml): 0% | activity at 100 µg/mL (HIV [4]): 50% | activity at 500 µg/mL (HIV [4]; dosage 0.5 mg/ml): 100% | inhibition of HIV / cytopathic effect (in words) (HIV [1]): strong HIV inhibitory activity | T-cells HIV-infected (score) (HIV [5]; compound concentration 0.3 mg/ml, 3 weeks, HIV-1 and HIV-2): 4+

OC[C@@H]1[C@@H](O)[C@H](O)[C@@H](O)CN1Cc1ccccc1 [N-benzyl derivative]
inhibition of HIV / cytopathic effect (in words) (HIV [1]): Neither the azofuranose analog of glucose nor the N-benzyl derivative were found to have an effect on CPE

C[C@@H]1NC[C@@H](O)[C@H](O)[C@@H]1O [1,5-dideoxy-1,5-imino-L-fucitol, 1,5-Dideoxy-1,5-imino-L-fucitol]
HIV inhibition score (inactive, scored as zero) (HIV [5]): zero

OC[C@@H]1NC[C@@H](O)[C@H]1O [Compound 3, 1,4-Dideoxy-1,4-imino-L-ribitol]
T-cells Control (score) [2, 8]: 4+ | cytotoxicity ([3]; dosage 0.13 mg/ml): 0% | activity at 130 µg/mL (HIV [4]): 25%

COC(=O)CCCCCN1C[C@@H](O)[C@H](O)[C@H](O)[C@@H]1C [Compound 12, 1,5-Dideoxy-1,5-imino-[N-ω-methyl caproate]-L-fucitol]
T-cells Control (score) ([2]; compound concentration 0.03 mg/ml): 4+ | cytotoxicity ([3]; dosage 0.1 mg/ml): 0% | activity at 100 µg/mL (HIV [4]): 75% | activity at 250 µg/mL (HIV [4]; dosage 0.25 mg/ml): 90%

CN1C[C@@H](O)[C@@H](O)[C@H](O)[C@H]1CO [Compound 9, N-Methyl derivative of deoxymannojirimycin]
T-cells Control (score) [2, 7]: 4+ | cytotoxicity ([3]; dosage 0.3 mg/ml): 0% | activity at 300 µg/mL (HIV [4]; dosage 0.3 mg/ml): 25%

Cc1cn([C@H]2C[C@H](N=[N+]=[N-])[C@@H](CO)O2)c(=O)[nH]c1=O [AZT, 3'-azido-3'-deoxythymidine, reference compound]
MCC (in vitro): 0.01 µg/mL | inhibition of HIV / cytopathic effect (in words) (HIV [1]): shown to inhibit replication of the virus in vitro

OC[C@@H](O)[C@@H]1NC[C@@H](O)[C@H]1O [Compound 8, 1,4-Dideoxy-1,4-imino-D-talitol]
T-cells Control (score) ([2]; compound concentration 0.16 mg/ml): 4+ | cytotoxicity ([3]; dosage 0.16 mg/ml): 0% | activity at 160 µg/mL (HIV [4]; dosage 0.16 mg/ml): 25%

OC[C@@H]1[C@@H](O)[C@@H](O)CN1Cc1ccccc1 [1,4-dideoxy-1,4-benzylimino-D-ribitol, 1,4-Dideoxy-1,4-benzylimino-D-ribitol]
HIV inhibition score (inactive, scored as zero) (HIV [5]): zero

OC[C@H]1NC[C@H](O)[C@@H](O)[C@@H]1O [deoxynojirimycin (DNJ), deoxynojirimycin]
glycosidase inhibition (in words) (glycosidase): glycosidase inhibitor | effect on HIV / virion infectivity (in words) (HIV [1]): positive effect

CN1C[C@H](O)[C@@H](O)[C@@H]1CO [Compound 5]
T-cells Control (score) [2, 6]: 4+ | cytotoxicity ([3]; dosage 0.1 mg/ml): 0% | activity at 100 µg/mL (HIV [4]): 25%

OC[C@H]1[C@H](O)[C@H](O)CN1Cc1ccccc1 [Compound 7, 1,4-dideoxy-1,4-benzylimino-L-ribitol]
T-cells Control (score) [2, 6]: 4+ | cytotoxicity ([3]; dosage 0.1 mg/ml): 0% | activity at 100 µg/mL (HIV [4]): 25%

C[C@H]1[C@@H](O)[C@@H](O)[C@H](O)CN1C [Compound 11, 1,5-Dideoxy-1,5-imino-[N-methyl]-L-fucitol]
T-cells Control (score) [2, 6]: 4+ | cytotoxicity ([3]; dosage 0.1 mg/ml): 0% | activity at 100 µg/mL (HIV [4]): 25%

OC[C@H]1NC[C@@H](O)[C@@H]1O [D-enantiomer]
inhibition of HIV / cytopathic effect (in words) (HIV [1]): very little effect on HIV replication

CN1C[C@H](O)[C@H](O)[C@H]1CO [Compound 6]
T-cells Control (score) [2, 6]: 4+ | cytotoxicity ([3]; dosage 0.1 mg/ml): 0% | activity at 100 µg/mL (HIV [4]): 25%

OC[C@H]1NC[C@H](O)[C@@H]1O [Compound 4, 1,4-Dideoxy-1,4-imino-D-ribitol]
T-cells Control (score) [2, 8]: 4+ | cytotoxicity ([3]; dosage 0.13 mg/ml): 0% | activity at 130 µg/mL (HIV [4]): 50%

C[C@@H]1NC(=O)[C@@H](O)[C@H](O)[C@@H]1O [Compound 10, 1,5-dideoxy-1,5-imino-L-fuconolactam]
T-cells Control (score) [2, 6]: 4+ | cytotoxicity ([3]; dosage 0.1 mg/ml): 25% | activity at 100 µg/mL (HIV [4]): 50%

OC[C@H]1NCC[C@@H](O)[C@@H]1O [fagomine]
α-glycosidase inhibitory activity (in words) (α-glycosidase): α-glycosidase inhibitory activity | inhibition of HIV / cytopathic effect (in words) (HIV [1]): no HIV inhibition was observed

O[C@H]1[C@H](O)[C@@H](O)CN2CC[C@H](O)[C@H]12 [castanospermine]
glucosidase I inhibitory activity (in words) (α-glucosidase I): α-glucosidase I inhibitor | effect on glycosylation of HIV virons and entry into target cells (in words) (HIV virons): interfere with normal glycosylation of HIV virons, thereby altering the envelope glycoprotein and preventing entry of HIV into target cells | inhibition of HIV / cytopathic effect (in words) (HIV [1]): inhibition of the cytopathic effect (CPE) | effect on HIV / virion infectivity (in words) (HIV [1]): only a modest reduction in virion infectivity
